Measured values taken from ChEMBL document CHEMBL4004854, “Pyrrolo[3',2':6,7]cyclohepta[1,2-b]pyridines with potent photo-antiproliferative activity” (Eur J Med Chem, 2017).
Active and inactive are the calls of the source. The rule behind the calls is not given here.

What was measured:
MCF7 [1] = experiment: Induction of mitochondrial dysfunction in human MCF7 cells assessed as organelle fusion at 2 uM upon UV light irradiation measured after 0.33 to 2 hrs by mitotracker orange CMTM-ROS/LCS1 dye based confocal microscopic method; assay type: functional, cell-based
Escherichia coli [2] = experiment: Induction of Escherichia coli pBR322 DNA single strand break assessed as open circular form DNA bands at 10 to 40 uM upon 7.5 J/cm2 UV-A light irradiation by ethidium bromide staining based UV transillumination assay
[3] = Singlet oxygen sensitizing activity in aqueous acetonitrile solution irradiated with nanosecond laser flash photolysis assessed as lowest triplet-excited state by measuring short lived transient life time at 10^-4 M at 520 nanometer under oxygen saturated condition by spectroscopic method
Escherichia coli [4] = experiment: Induction of Escherichia coli pBR322 DNA oxidative damage at 40 uM upon 7.5 J/cm2 UV-A light irradiation in presence of endonuclease-3 by ethidium bromide staining based electrophoresis
MCF7 [5] = experiment: Induction of lysosomal activation in human MCF7 cells at 2 uM upon UV light irradiation measured up to 2 hrs by lysotracker green DND26 dye based confocal microscopic method; assay type: functional, cell-based
[6] = Induction of singlet oxygen photogeneration in aqueous acetonitrile solution of ADPA assessed as photobleaching of anthracene absorption upon 150 Watt mercury light irradiation at 2.3 10^-5M at 400 nanometer measured up to 100 mins
MCF7 [7] = experiment: Induction of apoptosis in human MCF7 cells assessed as necrotic cells at 0.7 uM upon UV light irradiation measured after 24 hrs by Annexin V-FITC/propidium iodide staining based flow cytometry relative to control; assay type: functional
Jurkat [8] = experiment: Phototoxic index, ratio of CC50 for human Jurkat cells under dark condition to EC50 for human Jurkat cells under UV light irradiated condition
MCF7 [9] = experiment: Induction of mitochondrial dysfunction in human MCF7 cells assessed as perinuclear clustering at 2 uM upon UV light irradiation measured after 0.33 to 2 hrs by mitotracker orange CMTM-ROS/LCS1 dye based confocal microscopic method; assay type: functional, cell-based
MCF7 [10] = experiment: Induction of mitochondrial dysfunction in human MCF7 cells assessed as mild swelling at 2 uM upon UV light irradiation measured after 0.33 to 2 hrs by mitotracker orange CMTM-ROS/LCS1 dye based confocal microscopic method; assay type: functional, cell-based
MCF7 [11] = experiment: Induction of ROS generation in human MCF7 cells at 4 uM preincubated for 30 mins followed by UV light irradiation measured after 2 hrs by H2DCFDA staining based fluorescence assay relative to control; assay type: functional
[12] = Induction of singlet oxygen photogeneration in aqueous acetonitrile solution of ADPA assessed as photobleaching of anthracene absorption upon 150 Watt mercury light irradiation at 2.3 10^-5M at 400 nanometer measured up to 100 mins by ferrioxalate actinometry
MCF7 [13] = experiment: Induction of mitochondrial dysfunction in human MCF7 cells at 2 uM under dark condition measured after 0.33 to 2 hrs by mitotracker orange CMTM-ROS/LCS1 dye based confocal microscopic method; assay type: cell-based; conditions: mcf7, 2 µM
K562 [14] = experiment: Phototoxicity against human K562 cells assessed as reduction in cell viability preincubated for 30 mins followed by 1.25 J/cm2 UV light irradiation measured after 48 hrs by MTT assay; assay type: functional, cell-based; conditions: K562, light or radiation study
MCF7 [15] = experiment: Phototoxic index, ratio of CC50 for human MCF7 cells under dark condition to EC50 for human MCF7 cells under UV light irradiated condition
[16] = Dark toxicity against human Jurkat cells assessed as reduction in cell viability after 72 hrs by MTT assay; assay type: cell-based
MCF7 [17] = experiment: Induction of apoptosis in human MCF7 cells assessed as caspase-3 activation at 0.25 to 0.5 uM upon 2.5 J/cm2 UV light irradiation measured after 24 hrs by Western blot method; assay type: functional, cell-based
[18] = Drug metabolism in aqueous acetonitrile solution assessed as by-product formation at 2.3 10^-5M upon light irradiation by UV-absorption method; assay type: physicochemical; conditions: buffer
[19] = Dark toxicity against human K562 cells assessed as reduction in cell viability after 72 hrs by MTT assay; assay type: cell-based
Escherichia coli [20] = experiment: Induction of Escherichia coli pBR322 DNA double strand break assessed as linear form DNA bands at 10 to 40 uM upon 7.5 J/cm2 UV-A light irradiation by ethidium bromide staining based UV transillumination assay
MCF7 [21] = experiment: Induction of apoptosis in human MCF7 cells assessed as tBID activation at 0.25 to 0.5 uM upon 2.5 J/cm2 UV light irradiation measured after 24 hrs by Western blot method; assay type: functional, cell-based
[22] = Singlet oxygen sensitizing activity in aqueous acetonitrile solution irradiated with nanosecond laser flash photolysis assessed as lowest triplet-excited state by measuring short lived transient life time at 10^-4 M at 520 nanometer by spectroscopic method
Jurkat [23] = experiment: Induction of lipid peroxidation in human Jurkat cells upon 2.5 J/cm2 UV light irradiation measured after 24 hrs by TBARS assay; assay type: functional, cell-based
MCF7 [24] = experiment: Induction of ROS generation in human MCF7 cells up to 4 uM preincubated for 30 mins followed by UV light irradiation measured after 2 hrs in presence of 200 to 500 nM antioxidant NAC by H2DCFDA staining based fluorescence assay; assay type: functional, cell-based
Jurkat [25] = experiment: Phototoxicity against human Jurkat cells assessed as reduction in cell viability preincubated for 30 mins followed by 1.25 J/cm2 UV light irradiation measured after 48 hrs by MTT assay; assay type: functional, cell-based; conditions: light or radiation study
[26] = Singlet oxygen sensitizing activity in aqueous acetonitrile solution irradiated with nanosecond laser flash photolysis assessed as lowest triplet-excited state by measuring short lived transient life time at 10^-4 M at 520 nanometer under air equilibrated condition by spectroscopic method
Jurkat [27] = experiment: Phototoxicity against human Jurkat cells assessed as cell viability at 0.075 uM preincubated for 30 mins followed by 2.5 J/cm2 UV light irradiation measured after 72 hrs in presence of hydroxyl radical scavenger DMTU by MTT assay relative to control; assay type: functional; conditions: light or radiation study, read-out: Activity
MCF7 [28] = experiment: Induction of lysosomal membrane impairment in human MCF7 cells at 2 uM upon UV light irradiation measured up to 2 hrs by lysotracker green DND26 dye based confocal microscopic method; assay type: functional, cell-based
[29] = Dark toxicity against human MCF7 cells assessed as reduction in cell viability after 72 hrs by MTT assay; assay type: cell-based
MCF7 [30] = experiment: Induction of apoptosis in human MCF7 cells assessed as apoptotic cells at 0.7 uM upon UV light irradiation measured after 24 hrs by Annexin V-FITC/propidium iodide staining based flow cytometry (reference value: 22%); assay type: functional
[31] = Singlet oxygen sensitizing activity in aqueous acetonitrile solution irradiated with nanosecond laser flash photolysis assessed as lowest triplet-excited state by measuring short lived transient life time at 10^-4 M at 520 nanometer under argon saturated condition by spectroscopic method
[32] = Drug metabolism in aqueous acetonitrile solution assessed as by-product formation at 2.3 10^-5M upon light irradiation by HPLC analysis; assay type: physicochemical; conditions: buffer
Escherichia coli [33] = experiment: Induction of Escherichia coli pBR322 DNA oxidative damage at 40 uM upon 7.5 J/cm2 UV-A light irradiation in presence of Fpg by ethidium bromide staining based electrophoresis
K562 [34] = experiment: Phototoxic index, ratio of CC50 for human K562 cells under dark condition to EC50 for human K562 cells under UV light irradiated condition
MCF7 [35] = experiment: Phototoxicity against human MCF7 cells assessed as reduction in cell viability preincubated for 30 mins followed by 1.25 J/cm2 UV light irradiation measured after 48 hrs by MTT assay; assay type: functional, cell-based; conditions: MCF7, light or radiation study
[36] = Singlet oxygen sensitizing activity in aqueous acetonitrile solution irradiated with nanosecond laser flash photolysis assessed as lowest triplet-excited state by measuring long lived transient life time at 10^-4 M at 440 nanometer by spectroscopic method
Jurkat [37] = experiment: Phototoxicity against human Jurkat cells assessed as cell viability at 0.075 uM preincubated for 30 mins followed by 2.5 J/cm2 UV light irradiation measured after 72 hrs in presence of vitamin E by MTT assay relative to control; assay type: functional; conditions: light or radiation study, read-out: Activity
MCF7 [38] = experiment: Induction of ROS generation in human MCF7 cells up to 4 uM measured after 2 hrs under dark condition by H2DCFDA staining based fluorescence assay; assay type: cell-based; conditions: mcf7, 2 h
MCF7 [39] = experiment: Induction of apoptosis in human MCF7 cells assessed as apoptotic cells at 20 uM upon UV light irradiation measured after 24 hrs by Annexin V-FITC/propidium iodide staining based flow cytometry (reference value: 22%); assay type: functional
MCF7 [40] = experiment: Induction of apoptosis in human MCF7 cells assessed as live cells at 20 uM upon UV light irradiation measured after 24 hrs by Annexin V-FITC/propidium iodide staining based flow cytometry (reference value: 72%); assay type: functional
MCF7 [41] = experiment: Induction of lysosomal activation in human MCF7 cells at 2 uM under dark condition measured up to 2 hrs by lysotracker green DND26 dye based confocal microscopic method; assay type: cell-based; conditions: mcf7, 2 h
MCF7 [42] = experiment: Induction of mitochondrial dysfunction in human MCF7 cells at 2 uM upon UV light irradiation measured after 0.33 to 2 hrs by mitotracker orange CMTM-ROS/LCS1 dye based confocal microscopic method; assay type: functional, cell-based

CCOC(=O)c1cc2c(n1Cc1ccc(OC)cc1)-c1[nH]c(=O)c(S(=O)(=O)c3ccccc3)cc1CCC2
Activity (MCF7 [1]): Active
Activity (Escherichia coli [2]): inactive
Time [3]: 0.7 microsec
Activity (Escherichia coli [4]): Active
Activity (MCF7 [5]): Active
Activity [6]: Active
Activity (MCF7 [7]): 18%
Ratio CC50/EC50 (Jurkat [8]): >95.24
Activity (MCF7 [9]): Active
Activity (MCF7 [10]): Active
Activity (MCF7 [11]): <=150%
Activity [12]: Active
Activity (MCF7 [13]): Non-Toxic
EC50 (K562 [14]): 0.28 µM
Ratio CC50/EC50 (MCF7 [15]): >28.53
CC50 at 72 h [16]: > 20 µM
Activity (MCF7 [17]): Active
Drug metabolism [18]: Metabolite_Notdetected
CC50 at 72 h [19]: > 20 µM
Activity (Escherichia coli [20]): inactive
Activity (MCF7 [21]): Active
Time [22]: < 3.2 microsec
Activity (Jurkat [23]): Dose-dependent effect
Activity (MCF7 [24]): inactive
EC50 (Jurkat [25]): 0.21 µM
Time [26]: 1.2 microsec
viability at 0.075 µM (Jurkat [27]): 80 to 90%
Activity (MCF7 [28]): Active
CC50 at 72 h [29]: > 20 µM
Activity (MCF7 [30]): 36%
Time [31]: 3.2 microsec
Drug metabolism [32]: Metabolite_Notdetected
Activity (Escherichia coli [33]): Active
Ratio CC50/EC50 (K562 [34]): >71.43
EC50 (MCF7 [35]): 0.7 µM
Time [36]: > 30 microsec
viability at 0.075 µM (Jurkat [37]): 80 to 90%

Cn1ccc2c1-c1c(cc(S(=O)(=O)c3ccccc3)c(=O)n1C)CCC2
Activity (MCF7 [5]): inactive
Activity (MCF7 [38]): Non-Toxic
Activity (MCF7 [13]): Non-Toxic
EC50 (K562 [14]): > 20 µM
Activity (MCF7 [39]): 25%
CC50 at 72 h [16]: > 20 µM
CC50 at 72 h [19]: > 20 µM
Activity (MCF7 [40]): 66%
Activity (MCF7 [41]): Non-Toxic
Activity (MCF7 [42]): inactive
EC50 (Jurkat [25]): > 20 µM
CC50 at 72 h [29]: > 20 µM
EC50 (MCF7 [35]): > 20 µM
